Experimental data published in patent US12329739B2, “Isoflavonoid compounds and methods for the treatment of cancer” (Aardvark Therapeutics, Inc., priority 2010, dated 2025).

Columns and labels:
[1] = system: A2780 ovarian cancer cells; test: Combination with carboplatin, proliferation of A2780 cells; format: cell-based; settings: 0.5, 1 and 5 μM of compound plus 0.4 μM carboplatin
[2] = system: LNCaP; test: MTT proliferation assay, LNCaP; format: cell-based; settings: Homo sapiens, Prostate, 120 h of exposure
Experimental: (§1) Proliferation Assays. IC50 values were determined for each cell line. Cells were seeded in 96-well plates at an appropriate cell density as determined from growth kinetics analysis and cultured for 5 days in the absence and presence of the test compounds. Cell proliferation was assessed after the addition of 20 μl of 3-4,5 dimethylthiazol-2,5-diphenyl tetrazolium bromide (MTT, 5 mg/ml in PBS, Sigma) for 5 hrs at 37° C. according to manufacturer's instructions. IC50 values were calculated from semi-log plots of % of control proliferation on the y-axis against log dose on the x-axis.
(§2) Anti-proliferative Activity of Isoflavonoid Derivatives. IC50 values were determined for each cell line after 120 h of exposure.

[3] = system: PC3; test: MTT proliferation assay, PC3; format: cell-based
Experimental: as §1, §2

[4] = system: SK-Hep-1; test: MTT proliferation assay, SK-Hep-1; format: cell-based, human; settings: Homo sapiens, SK-HEP1; Liver, SK-Hep-1, 120 h of exposure
Experimental: (§3) The human hepatocellular carcinoma lines HepG2 (HB-8065), SK-HEP-1 (HTB-52) and the normal human lung fibroblast line IMR-90 (CCL-186) were cultured in Minimum Essential Eagles Medium containing 2 mM L-glutamine, 2.2 g/L sodium bicarbonate, supplemented with 1 mM sodium pyruvate and 0.1 mM non-essential amino acids. The human hepatocellular carcinoma line JHH-1 (JCRB1062) was cultured in Williams E Medium (Invitrogen) containing 2.2 g/L sodium bicarbonate, supplemented with 2 mM L-glutamine. The hepatocellular carcinoma line HuH-7 (JCRB0403) was cultured in DMEM, supplemented with 2 mM L-glutamine.
as §1, §2

[5] = system: MM200; test: MTT proliferation assay, MM200; format: cell-based; settings: Melanoma, MM200, 120 h of exposure
Experimental: as §1, §2

[6] = system: A2780 ovarian cancer cells; test: Combination with carboplatin, proliferation of A2780 cells; format: cell-based
Experimental: In vitro toxicity in normal and cancer cells. Cells were seeded in 96-well plates at an appropriate cell density as determined from growth kinetics analysis. Depending on the plating efficiency and lag phase of individual cell lines, cells were allowed to plate down prior to drug exposure. Intra-experimental single agent controls were included to ensure IC50 values obtained for each cell line matched previous IC50 determinations. Four analogue concentrations were employed in each analysis. Analogue concentrations used in each assay were chosen based on IC50 values, which formed the top concentration of analogue used. Subsequent concentrations were chosen based on simple ½ or 1/10 dilutions of the top analogue concentration employed (i.e. 2, 1, 0.5, 0.25 μM). Nine 1/10 serial dilutions of chemotherapeutic were employed with the top chemotherapeutic concentration being 50 μM.
For combined analysis, analogue concentrations were held constant through 1/10 serial dilutions of chemotherapeutic in growth medium (top chemotherapeutic concentration employed was 50 μM). Combined cultures were cultured for 5 days.
The sequence of administration effect of each agent on chemotherapeutic IC50 values was assessed by exposing plated cells to a single agent in sequence for 24 hr. To assess the isoflavonoid derivative→chemotherapeutic sequence, plated cells were first exposed to the appropriate analogue concentrations and incubated at 37° C. for 24 hr. Cells were washed with growth medium and then exposed to the appropriate chemotherapeutic concentrations and incubated for 24 hr. Cells were then washed and incubated for a further 3 days. To assess the chemotherapeutic→isoflavonoid derivative sequence, the procedure was reversed.
Cell proliferation was assessed after the addition of 20 μl of 3-4,5 dimethylthiazol-2,5-diphenyl tetrazolium bromide (MTT, 2.5 mg/ml in PBS, Sigma) for 3-4 hrs at 37° C. according to manufacturer's instructions. IC50 values were calculated from semi-log plots of % of control proliferation on the y-axis against log dose on the x-axis.
3-D model analysis of the cytotoxic interaction between drug A and drug B enables the representation of predicted inhibitory effect of two drugs in combination in 3 dimensions to reveal actual regions of synergy or antagonism. The 3D synergy plots are based on a theory of “Theoretical Additivity” (TA or […]) as outlined by Kanzawa et al. Theoretical Additivity was calculated from the cytotoxicities of drug A and drug B as monotherapies using the following formula which assumes the drugs are mutually exclusive inhibitors: […]
The TA is calculated for each combination of drug concentrations and subtracted from the observed experimental effect for each combination to give a measurement of synergistic or enhanced action.
Combination index (CI) analysis, which employs the median-effect principle correlating drug dose to cytotoxicity, was also employed to assess synergy. The median-effect equation is utilized to calculate the dose of a drug that inhibits “x” percent of cells (Chou and Talalay, 1984). D=Dm[fa/(1−fa)]^1/m
In vitro Assessment of Combination of Optically Active Compound 31 and Carboplatin. Combination studies employed both 24 hr concurrent exposure, and 24 hr sequential exposure (racemic compound 32→Carboplatin) regimens. In both studies, four analogue concentrations (0.25, 0.5, 1 and 5 μM) were held constant against titrated carboplatin. When 1 and 5 μM of compound 32 was assessed in combination with the lowest concentration of carboplatin employed in this study (0.4 μM), no IC50 for carboplatin was achieved due the high levels of cell kill observed (30-40% of control).

[7] = system: HepG2; test: MTT proliferation assay, HepG2; format: cell-based, human; settings: Homo sapiens; Liver, HepG2, 120 h of exposure
Experimental: as §3, §1, §2

[8] = system: A2058; test: MTT proliferation assay, A2058; format: cell-based
Experimental: as §1, §2

SMILES: Oc1ccc([C@H]2c3ccc(O)cc3OC[C@H]2c2ccc(O)cc2)cc1 [Compound 31, d-cis-3-(4-hydroxyphenyl)-4-(4-hydroxyphenyl)chroman-7-ol]
- cell kill level observed (no IC50 for carboplatin achieved) [1]: 25-40 % of control
- IC50 [2]: 150 to 500 nM
- IC50 ([3]; Homo sapiens, PC-3, 120 h, Prostate, PC3, 120 h of exposure): 150 to 500 nM
- IC50 ([3]; Table 2, Prostate, PC3, 120 hrs of exposure): 150 to 500 nM
- IC50 [4]: 150 to 500 nM
- IC50 [5]: 510 to 1500 nM
- enhancement of the anti-cancer effect of carboplatin ([6]; 0.25 μM of compound, A2780, depending on exposure regimen (24 hr concurrent or sequential)): 7-11 fold
- potency of the inhibition of proliferation compared with compound 34 ([6]; 0.5 μM of compound in combination with carboplatin, A2780): superior
- compound concentration giving maximal activity enhancement with carboplatin ([6]; 3D method of Kanzawa, 12.5 μM carboplatin, A2780): 0.25 µM
- activity enhancement in combination with carboplatin ([6]; A2780 cell line, 31 compared with compound 32): superior in its ability to augment carboplatin toxicity
- retardation of A2780 cell proliferation compared with compound 34 ([6]; sequential exposure (24 h), 0.25 μM of compound followed by carboplatin): superior retardation of A2780 cell proliferation
- IC50 [7]: 150 to 500 nM
- IC50 ([8]; Homo sapiens, A2058, 120 h, Melanoma, A2058, 120 h of exposure): ≤ 150 nM
- IC50 ([8]; Table 2, Melanoma, A2058, 120 hrs of exposure): ≤ 150 nM
